Laboratory results published in patent publication US7365069B2, “Pyrimidone derivatives” (Bexel Pharmaceuticals Inc., priority 2002, dated 2008).

Tests used:
IL-6 = IL-6 production in LPS-stimulated human whole blood; format: cell-based; conditions: LPS 4 h
Description: This assay determines the effect of test compounds on the production of IL-6 from human whole blood. Compounds are tested for their ability to downregulate the production of IL-6 in activated whole blood. The test compounds are pre-incubated for 15 minutes at 37° C. and then stimulated with Lipopolysaccharide (Salmonella abortus equi, 1 μg/ml) for 4 h at 37° C. in 5% CO2. The levels of Interleukin-6 are estimated using Enzyme linked Immunosorbent assay performed in a 96 well format as per the procedure of the manufacturer (Cayman Chemical, Ann Arbor, USA).

Male Wistar rats [1] = test: Gastroulcerogenic potential (stomach lesions after the paw edema test); format: in vivo; conditions: 10 mg/kg body weight, oral, rat
Description: (§1) The carrageenan paw edema test is performed as described by Winter et al (Proc. Soc. Exp. Biol. Med, 111, 544, 1962). Male Wistar rats are selected and the body weights are equivalent within each group. The rats are fasted for eighteen hours with free access to water. The rats are dosed orally with the test compound suspended in vehicle containing 0.5% methylcellulose. The control rats are administered the vehicle alone. After an hour, the rats are injected with 0.1 ml of 1% Carrageenan solution in 0.9% saline into the sub-plantar surface of the right hind paw. Paw volume is measured using water plethysmograph before and after 3 hours of carrageenan injection. The average of foot swelling in drug treated animals is compared with that of control animals. Anti-inflammatory activity is expressed as the percentage inhibition of edema compared with control group [Arzneim-Forsch/Drug Res., 43(I), 1, 44-50,1993; Ottemess and Bliven, Laboratory Models for Testing NSAIDs, In Non-Steroidal Anti-Inflammatory Drugs, (J. Lombardino, ed. 1985)]. In order to evaluate their role on the ulcer formation, the animals are sacrificed and the stomach is taken out and flushed with 1% formalin. The stomach is opened along the greater curvature. The haemorrhagic puncta and sulci are identified microscopically and images are captured. The stomach lesions are calculated.

COX-2 = molecular target: T1, COX-2 (Homo sapiens, UniProt P35354); test: Human whole blood assay, COX-2 inhibition (PGE2 ELISA after LPS); format: cell-based; conditions: LPS 24 h
T1 construct: incubation of human blood with lipopolysaccharide (LPS), which induces COX-2 production in the blood; endogenous in cells; host or cells: fresh human whole blood from volunteers, treated with aspirin and then LPS
T1 sequence (P35354 18-604): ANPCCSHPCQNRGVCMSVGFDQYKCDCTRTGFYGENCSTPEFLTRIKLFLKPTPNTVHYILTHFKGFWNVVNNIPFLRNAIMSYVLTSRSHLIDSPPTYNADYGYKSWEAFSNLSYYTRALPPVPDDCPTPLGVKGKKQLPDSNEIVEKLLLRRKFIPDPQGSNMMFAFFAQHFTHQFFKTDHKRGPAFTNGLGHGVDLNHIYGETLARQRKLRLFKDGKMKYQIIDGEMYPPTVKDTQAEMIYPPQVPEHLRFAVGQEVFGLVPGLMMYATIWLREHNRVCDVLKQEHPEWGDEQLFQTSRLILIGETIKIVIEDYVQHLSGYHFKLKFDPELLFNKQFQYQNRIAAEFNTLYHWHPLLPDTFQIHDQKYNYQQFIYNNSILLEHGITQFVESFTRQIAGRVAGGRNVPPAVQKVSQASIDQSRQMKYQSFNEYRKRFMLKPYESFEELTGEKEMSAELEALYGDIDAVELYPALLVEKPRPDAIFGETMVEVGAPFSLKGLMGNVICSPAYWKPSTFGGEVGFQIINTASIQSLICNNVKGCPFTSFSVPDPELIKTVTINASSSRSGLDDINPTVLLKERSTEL
Description: In Vivo Evaluation of Cyclooxygenase-2 (COX-2) Inhibition Activity
The COX-2 inhibition activities of the compounds illustrated in the examples are determined by the following method.
Human whole blood provides a protein and cell rich milieu appropriate for the study of biochemical efficacy of anti-inflammatory compounds such as selective COX-2 inhibitors. […] This is correlating with the observation that COX-2 inhibitors have no effect on prostaglandin E2 (PGE2) production in normal blood. These inhibitors are active only after incubation of human blood with lipopolysaccharide (LPS), which induces COX-2 production in the blood.
Fresh blood is collected in tubes containing potassium EDTA by vein puncture from make volunteers. The subjects should have no apparent inflammatory conditions and not taken NSAIDs for at least 7 days prior to blood collection. Blood is treated with aspirin in vitro (10 μg/ml, at time zero) to inactivate COX-1, and then with LPS (10 μg/ml) along with test agents or vehicle. The blood is incubated for 24 h at 37° C., after which the tubes are centrifuged, the plasma is separated and stored at −80° C. (J. Pharmacol. Exp. Ther, 271, 1705, 1994; Proc. Natl. Acad. Sci. USA., 96, 7563, 1999). The plasma is assayed for PGE2 using Cayman ELISA kit as per the procedure outlined by the manufacturer (Cayman Chemicals, Ann Arbor, USA).

Male Wistar rats [2] = test: Rat carrageenan paw edema test; format: in vivo; conditions: 10 mg/kg body weight, oral, paw volume 3 hours after carrageenan, read-out: Rat Paw Edema model % inhibition
Description: Rat Carrageenan Paw Edema Test
as §1

TNF-α = TNF-α production in LPS-stimulated human whole blood; format: cell-based; conditions: 1 μM, LPS 4 h
Description: Tumor Necrosis Factor Alpha (TNF-α)
This assay determines the effect of test compounds on the production of TNF-α in human whole blood. TNF-α assay is carried out as described by Armin hatzelmann and Christian Schudt (J Pharm Exp Ther 297, 261, 2001). Compounds are tested for their ability to inhibit the activity of TNF-α in human whole blood. The test compounds are pre-incubated for 15 minutes at 37° C. and then stimulated with Lipopolysaccharide (Salmonella abortus equi, 1 μg/ml) for 4 h at 37° C. in 5% CO2. The levels of TNF-α are estimated using Enzyme linked Immunosorbent assay performed in a 96 well format as per the procedure of the manufacturer (Cayman Chemical, Ann Arbor, USA).

MCF-7 = test: DTP human tumor cell line one-dose prescreen, MCF-7; format: cell-based; conditions: MCF7, 48 hours, Alamar Blue, test/control, read-out: Percentage growth Breast MCF-7
Description: (§2) DTP Human Tumor Cell Line Screen
(§3) Methodology of the In Vitro Cancer Screen
(§4) The current assay utilizes a 384 well plate format and fluorescent staining technologies resulting in greater screening capacity for testing of synthetic samples.
(§5) The cell lines of the cancer-screening panel are grown in RPMI 1640 medium containing 5% fetal bovine serum and 2 mM L-glutamine. For a typical screening experiment, cells are inoculated into 96 well microtiter plates in 100 μL. After cell inoculation, the microtiter plates are incubated at 37° C., 5% CO2, 95% air and 100% relative humidity for 24 h prior to addition of experimental drugs. The cells are plated a densities of 5000 cells/well (MCF7), 1000 cells/well (NC1—H460), and 7500 cells/well (SF-268) to allow for varying doubling time of the cell lines. Each plate contains all three cell lines, a series of dilutions of standard agents, total kill wells and appropriate controls. Plates are incubated under standard conditions for 24 hours prior to addition of experimental compounds or extracts.
(§6) Addition of Experimental Agents (Pure Compounds)
(§7) Experimental compounds are solubilized in dimethyl sulfoxide (DMSO) at 400-times the desired maximum test concentration (maximum final DMSO concentration of 0.25%) and stored frozen. Compounds are then diluted with complete media with 0.1% gentamicin sulfate (5 μl of test sample in 100% DMSO is added to 565 μl of complete medium). 20 μl of this solution is then dispensed into test wells containing 50 μl of cell suspension to yield a test concentration of 1.00E-04M.
(§8) Two standard drugs, meaning that their activities against the cell lines are well documented, are tested against each cell line: NSC 19893 (5-FU) and NSC 123127 (Adriamycin).
(§9) After compound addition, plates are incubated at standard conditions for 48 hours, 10 μl/well Alamar Blue is added and the plates are incubated for an additional 4 hours. Fluorescence is measured using an excitation wavelength of 530 nm and an emission wavelength of 590 nm.
(§10) Calculation of Percent Test Cell Growth/Control (Untreated) Cell Growth (T/C)
(§11) Percent growth is calculated on a plate-by-plate basis for test wells relative to control wells. Percent Growth is expressed as the ratio of fluorescence of the test well to the average fluorescence of the control wells x 100.

NCI-H460 = test: DTP human tumor cell line one-dose prescreen, NCI-H460; format: cell-based; conditions: 48 hours, Alamar Blue, test/control, read-out: Percentage growth Lung NCI-H460
Description: as §2, §3, §4, §5, §6, §7, §8, §9, §10, §11

SF-268 = test: DTP human tumor cell line one-dose prescreen, SF-268; format: cell-based; conditions: 48 hours, Alamar Blue, test/control, read-out: Percentage growth CNS SF-268
Description: as §2, §3, §4, §5, §6, §7, §8, §9, §10, §11

| inhibition at 1 µM (COX-2) | melting point | inhibition at 0.25 µM (COX-2; 0.25 μM) | Compound | inhibition at 0.25 µM (IL-6) | Gastroulcerogenic potential (% incidence of ulceration) (Male Wistar rats [1]) | inhibition in vivo at 10 mg/kg (Male Wistar rats [2]) | inhibition at 1 µM (IL-6) | inhibition at 1 µM (TNF-α) | activity at 100 µM (MCF-7) | activity at 100 µM (NCI-H460) | activity at 100 µM (SF-268) | inhibition at 100 µM (IL-6; 100 μM) | inhibition at 10 µM (IL-6; 10 μM) |
| --- | --- | --- | --- | --- | --- | --- | --- | --- | --- | --- | --- | --- | --- |
| – | 209 to 213 °C | 7.79% | CCOc1ccc(-n2c(-c3ccc(SC)cc3)nc(SC)c(C#N)c2=O)cc1 [Example 21, 5-cyano-1-(4-ethoxyphenyl)-4-(methylthio)-2-[4-(methylthio)phenyl]-6-oxo-1,6-dihydropyrimidine] | – | – | – | 17.3% | 46.6% | 84% | 92% | 91% | – | – |
| – | 190 to 193 °C | – | CSc1nc(-c2cccnc2)n(-c2ccc(F)cc2)c(=O)c1C#N [Example 26, 5-cyano-1-(4-fluorophenyl)-4-(methylthio)-6-oxo-2-pyridin-3-yl-1,6-dihydropyrimidine] | – | – | – | – | 30.6% | 74% | 79% | 99% | – | – |
| – | 203 to 205 °C | – | CSc1ccc(-c2nc(SC)c(C#N)c(=O)n2-c2ccc(Cl)cc2)cc1 [Example 18, 1-(4-chlorophenyl)-5-cyano-4-(methylthio)-2-[4-(methylthio)phenyl]-6-oxo-1,6-dihydropyrimidine] | – | – | – | – | 35.7% | 89% | 98% | 86% | 44.8% | – |
| 14.9% | 158 to 161 °C | – | CSc1ccc(-n2c(-c3ccccn3)nc(SC)c(C#N)c2=O)cc1 [Example 30, 5-cyano-4-(methylthio)-1-[4-(methylthio)phenyl]-6-oxo-2-pyridin-2-yl-1,6-dihydropyrimidine] | – | – | – | – | – | 38% | 27% | 86% | – | – |
| – | 153 to 155 °C | – | CCOC(=O)c1c(SC)nc(-c2ccc(SC)cc2)n(-c2ccc(C)cc2)c1=O [Example 41, ethyl 1-(4-methylphenyl)-4-(methylthio)-2-[4-(methylthio)phenyl]-6-oxo-1,6-dihydropyrimidine-5-carboxylate] | – | – | – | – | – | 85% | 86% | 89% | – | 21.9% |

Continued, compound first:

| Compound | inhibition at 1 µM (COX-2) | melting point | inhibition at 0.25 µM (COX-2; 0.25 μM) | inhibition at 0.25 µM (IL-6) | Gastroulcerogenic potential (% incidence of ulceration) (Male Wistar rats [1]) | inhibition in vivo at 10 mg/kg (Male Wistar rats [2]) | inhibition at 1 µM (IL-6) | inhibition at 1 µM (TNF-α) | activity at 100 µM (MCF-7) | activity at 100 µM (NCI-H460) | activity at 100 µM (SF-268) | inhibition at 100 µM (IL-6; 100 μM) | inhibition at 10 µM (IL-6; 10 μM) |
| --- | --- | --- | --- | --- | --- | --- | --- | --- | --- | --- | --- | --- | --- |
| CSc1ccc(-n2c(-c3ccc(F)cc3)nc(SC)c(C#N)c2=O)cc1 [Example 2, 5-cyano-2-(4-fluorophenyl)-4-(methylthio)-1-[4-(methylthio)phenyl]-6-oxo-1,6-dihydropyrimidine] | 53.4% | 204 to 207 °C | – | 45% | 25% | 39% | – | – | – | – | – | – | – |
| CSc1ccc(-c2nc(SC)c(C#N)c(=O)n2-c2ccc(F)cc2)cc1 [Example 5, 5-cyano-2-[(4-methylthio)phenyl]-4-(methylthio)-1-[4-fluorophenyl]-6-oxo-1,6-dihydropyrimidine] | 40.5% | 219 to 221 °C | – | 51% | 37.5% | 13.3% | – | – | – | – | – | – | – |
| CSc1ccc(-n2c(-c3ccccc3)nc(SC)c(C#N)c2=O)cc1 [Example 3, 5-cyano-2-phenyl-4-(methylthio)-1-[4-(methylthio)phenyl]-6-oxo-1,6-dihydropyrimidine] | – | 204 to 205 °C | – | 11.3% | – | – | – | – | 82% | 30% | 90% | – | – |
| CSc1ccc(-c2nc(SC)c(C#N)c(=O)n2-c2ccc(C(C)C)cc2)cc1 [Example 9, 5-cyano-1-(4-isopropylphenyl)-4-(methylthio)-2-[4-(methylthio)phenyl]-6-oxo-1,6-dihydropyrimidine] | – | 180 to 181 °C | – | 31.1% | 0% | 37.2% | – | – | – | – | – | – | – |
| CSc1ccc(-c2nc(SC)c(C(=O)O)c(=O)n2-c2ccc(C)cc2)cc1 [Example 8, 5-carboxy-2-[(4-methylthio)phenyl]-4-(methylthio)-1-(4-methylphenyl)-6-oxo-1,6-dihydropyrimidine] | 40.1% | 173 to 175 °C | – | – | – | – | 69.4% | – | 77% | 51% | 89% | – | – |
